Data as given in US20070111216A1 (priority 2004, published 2007).

Columns and labels:
Type in all cases: biochemical
[1] = target: T1, E. coli RNA Polymerase Core Enzyme (Escherichia coli, UniProt P0A8T7+P0A8V2); assay: Rolling circle transcription on circular 45mer ssDNA monitored in real time (SYBR Gold) and by gel electrophoresis; details: 20 μg/ml α-amanitin, 10 min preincubation at 37° C., 0.5 mM each NTP, about 1.5 hours (FIG. 4)
T1 construct: purchased EPICENTRE
Protocol: A single-stranded circularized 45mer DNA molecule having the same sequence as the circular 45mer used in Example 1 (Sequence I.D. No. 1) was obtained.
A reaction mixture was prepared containing 0.5 units of E. coli RNA Polymerase Core Enzyme, and a reaction buffer. The reaction mixture was incubated in the presence of 1 μM rifampicin, 20 U TAGETIN (Epicentre Biotechnologies), or 20 μg/ml α-amanitin for 10 min at 37° C. Subsequently, 0.8 pmole of the circularized 45mer DNA oligomer were added to the reaction mixture followed by incubation for 5 min at 37° C. Then SYBR Gold (Molecular Probes), which had been diluted 1:20,000, was added. Subsequently, ATP, CTP, GTP and UTP were added such that the concentration of each NTP was 0.5 mM in the final reaction mixture. Fluorescence was measured for about 1.5 hours in an iCycler iQ real-time PCR detection system (Bio-Rad Laboratories) using 490 nm excitation and 530 nm emission wavelengths. Afterwards, the reaction products were analyzed by gel electrophoresis.

[2] = target: T2, E. coli RNA polymerase Holoenzyme (Escherichia coli, UniProt P0A8T7+P0A8V2); assay: Rolling circle transcription on circular 38mer ssDNA, products visualized by agarose gel electrophoresis; details: 37° C. for 2 hours, 0.5 mM each NTP, concentration of inhibitor not printed (FIG. 2)
T2 construct: purchased EPICENTRE
Protocol: (§1) A single-stranded circularized 38mer DNA molecule having the same sequence as the circular 38mer used in Example 2 (Sequence I.D. No. 2) was obtained.
(§2) A reaction mixture was prepared comprising 5 pmoles of the circularized 38mer DNA molecule, 1 unit of E. coli RNA Polymerase Holoenzyme (EPICENTRE) or of soy germ RNA polymerase II, 0.5 mM of each NTP and a reaction buffer. The reaction mixture was incubated at 37° C. for 2 hours in the presence or absence of rifampicin or α-amanitin. The reaction products were visualized by agarose gel electrophoresis.

[3] = tested on: soy germ RNA polymerase II; assay: as above; details: 37° C. for 2 hours, 0.5 mM each NTP, concentration of inhibitor not printed (FIG. 2)
Protocol: as §1, §2

T1 sequence (P0A8V2 whole entry): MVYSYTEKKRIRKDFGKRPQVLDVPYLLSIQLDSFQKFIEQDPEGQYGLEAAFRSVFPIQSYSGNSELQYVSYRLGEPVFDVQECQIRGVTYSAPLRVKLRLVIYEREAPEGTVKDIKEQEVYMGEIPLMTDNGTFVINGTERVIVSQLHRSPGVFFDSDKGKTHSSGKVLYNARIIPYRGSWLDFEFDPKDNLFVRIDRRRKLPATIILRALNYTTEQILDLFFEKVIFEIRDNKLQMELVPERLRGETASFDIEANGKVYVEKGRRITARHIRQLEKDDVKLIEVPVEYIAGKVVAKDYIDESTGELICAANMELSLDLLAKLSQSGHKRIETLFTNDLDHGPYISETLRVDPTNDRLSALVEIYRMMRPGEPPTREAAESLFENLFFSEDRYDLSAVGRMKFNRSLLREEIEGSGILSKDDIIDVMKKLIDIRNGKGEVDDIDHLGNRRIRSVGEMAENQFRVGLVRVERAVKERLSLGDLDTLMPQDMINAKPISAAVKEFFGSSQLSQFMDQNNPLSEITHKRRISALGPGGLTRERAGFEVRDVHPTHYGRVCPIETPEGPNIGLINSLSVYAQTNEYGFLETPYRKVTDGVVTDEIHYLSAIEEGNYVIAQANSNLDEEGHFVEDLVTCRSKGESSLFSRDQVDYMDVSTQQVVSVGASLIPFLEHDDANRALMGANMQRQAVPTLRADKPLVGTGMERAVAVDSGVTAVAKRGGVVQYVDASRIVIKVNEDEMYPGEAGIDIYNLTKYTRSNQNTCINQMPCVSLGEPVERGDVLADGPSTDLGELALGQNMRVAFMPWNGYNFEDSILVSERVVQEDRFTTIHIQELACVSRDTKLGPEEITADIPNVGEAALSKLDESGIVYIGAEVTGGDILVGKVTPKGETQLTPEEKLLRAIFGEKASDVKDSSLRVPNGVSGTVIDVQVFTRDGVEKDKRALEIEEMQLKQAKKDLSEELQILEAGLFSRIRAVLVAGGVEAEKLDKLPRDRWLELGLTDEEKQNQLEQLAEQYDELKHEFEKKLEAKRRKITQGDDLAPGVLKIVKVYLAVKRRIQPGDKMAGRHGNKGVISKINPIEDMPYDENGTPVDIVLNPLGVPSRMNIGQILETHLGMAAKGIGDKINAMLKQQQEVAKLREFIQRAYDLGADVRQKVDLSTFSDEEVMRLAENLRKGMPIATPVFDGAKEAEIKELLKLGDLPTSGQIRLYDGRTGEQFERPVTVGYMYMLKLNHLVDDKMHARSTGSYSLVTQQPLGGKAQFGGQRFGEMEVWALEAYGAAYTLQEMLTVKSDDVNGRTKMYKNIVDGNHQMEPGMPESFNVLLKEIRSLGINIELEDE
T1 sequence (P0A8T7 whole entry): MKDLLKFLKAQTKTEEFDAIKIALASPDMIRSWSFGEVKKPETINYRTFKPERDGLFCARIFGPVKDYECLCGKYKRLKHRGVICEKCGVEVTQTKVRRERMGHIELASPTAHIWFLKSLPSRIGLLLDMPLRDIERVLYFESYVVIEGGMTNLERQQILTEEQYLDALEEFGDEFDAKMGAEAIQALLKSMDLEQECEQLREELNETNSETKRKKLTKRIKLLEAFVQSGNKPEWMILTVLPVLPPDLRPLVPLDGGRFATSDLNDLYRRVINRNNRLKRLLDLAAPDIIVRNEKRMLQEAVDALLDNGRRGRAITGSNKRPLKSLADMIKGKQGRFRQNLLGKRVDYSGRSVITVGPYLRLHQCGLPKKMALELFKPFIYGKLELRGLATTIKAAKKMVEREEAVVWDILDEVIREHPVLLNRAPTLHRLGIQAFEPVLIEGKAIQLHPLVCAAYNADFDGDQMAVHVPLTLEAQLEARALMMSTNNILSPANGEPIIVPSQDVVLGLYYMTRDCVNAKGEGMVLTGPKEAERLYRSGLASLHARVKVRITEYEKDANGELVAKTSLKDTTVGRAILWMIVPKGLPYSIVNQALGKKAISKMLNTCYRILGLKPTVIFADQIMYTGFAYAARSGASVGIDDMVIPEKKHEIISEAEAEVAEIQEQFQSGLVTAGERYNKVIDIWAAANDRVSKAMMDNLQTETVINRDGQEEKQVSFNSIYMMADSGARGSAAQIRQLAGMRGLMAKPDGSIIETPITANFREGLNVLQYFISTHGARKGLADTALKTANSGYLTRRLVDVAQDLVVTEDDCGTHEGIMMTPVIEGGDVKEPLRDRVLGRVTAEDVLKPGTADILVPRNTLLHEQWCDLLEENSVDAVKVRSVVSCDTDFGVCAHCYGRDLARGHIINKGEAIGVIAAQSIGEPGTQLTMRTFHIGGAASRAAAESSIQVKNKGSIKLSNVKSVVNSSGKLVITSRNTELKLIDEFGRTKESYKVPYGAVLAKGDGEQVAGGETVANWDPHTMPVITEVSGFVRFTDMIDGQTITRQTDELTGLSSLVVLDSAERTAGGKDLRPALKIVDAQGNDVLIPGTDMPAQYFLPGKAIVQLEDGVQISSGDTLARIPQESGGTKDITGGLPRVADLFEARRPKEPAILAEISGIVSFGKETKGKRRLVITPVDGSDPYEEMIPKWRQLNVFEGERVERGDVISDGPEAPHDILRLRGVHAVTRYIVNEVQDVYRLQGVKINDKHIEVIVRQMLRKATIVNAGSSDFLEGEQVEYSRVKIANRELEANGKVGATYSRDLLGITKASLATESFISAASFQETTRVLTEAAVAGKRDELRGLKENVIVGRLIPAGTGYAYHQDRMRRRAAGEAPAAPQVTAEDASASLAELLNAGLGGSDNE
T1 sequence (P0A7Z4 whole entry partner): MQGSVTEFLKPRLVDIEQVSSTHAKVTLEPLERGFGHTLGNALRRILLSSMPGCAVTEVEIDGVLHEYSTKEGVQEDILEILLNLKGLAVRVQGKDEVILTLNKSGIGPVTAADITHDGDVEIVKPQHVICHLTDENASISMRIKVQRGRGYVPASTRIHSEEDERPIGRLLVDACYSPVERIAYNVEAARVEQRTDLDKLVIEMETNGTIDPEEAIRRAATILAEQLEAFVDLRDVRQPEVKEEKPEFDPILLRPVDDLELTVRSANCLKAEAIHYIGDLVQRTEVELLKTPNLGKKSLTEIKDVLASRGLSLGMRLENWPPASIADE
T1 sequence (P0A800 2-91 partner limits assumed): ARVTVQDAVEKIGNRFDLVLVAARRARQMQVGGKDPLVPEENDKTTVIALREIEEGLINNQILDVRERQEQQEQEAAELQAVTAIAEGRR

SMILES: CC[C@H](C)[C@@H]1NC(=O)CNC(=O)[C@@H]2Cc3c([nH]c4cc(O)ccc34)[S+]([O-])C[C@@H](NC(=O)CNC1=O)C(=O)N[C@@H](CC(N)=O)C(=O)N1C[C@H](O)C[C@H]1C(=O)N[C@@H]([C@@H](C)[C@@H](O)CO)C(=O)N2 (stereo in doubt) [α-amanitin]
- RNA synthesis in the presence of inhibitor [1]: RNA was synthesized
- Inhibition of RNA polymerase activity [2]: no inhibition
- Inhibition of RNA polymerase activity [3]: Inhibitory effects
